We go through 15 compounds from paper PMC10574351, “First-Row Transition Metal Complexes Incorporating the 2-(2′-pyridyl)quinoxaline Ligand (pqx), as Potent Inflammatory Mediators: Cytotoxic Properties and Biological Activities against the Platelet-Activating Factor (PAF) and Thrombin” (Molecules, 2023).

Assay [1] has as its system HEK293T (human embryonic kidney cells). Description: MTT cell viability assay, HEK293T. The settings on record: 48 h exposure, mean ± SD. Type of assay: cell-based. How it is done: (§1) In this report, cell viability tests were conducted in HEK293T and HeLa cancer cells by means of the colorimetric 3-(4,5-dimethylthiazol-2-yl)-2,5-diphenyl tetrazolium bromide (MTT) assay after exposure for 48 h. A HeLa cancer cell line was selected since it is widely used in cytotoxicity studies. For all complexes, a 10 mM stock solution in DMSO (H2O for cisplatin) was prepared and diluted appropriately to reach the final concentration reported in the Materials and Methods. The non-cancerous HEK293T cell line was used for comparison. The IC50 values of the first-row metal complexes, the pqx ligand and cisplatin, presented herein were calculated using a dose-response model, which was obtained from sigmoidal fitting of dose-response curves.
(§2) The HEK293T cell line (immortalized human embryonic kidney cells) was obtained from the Biomedical Research Foundation Academy of Athens (BRFAA), Athens, Greece and the HeLa cell line (cervical cancer cells) was obtained from the National Centre For Scientific Research Demokritos (NCSR Demokritos), Athens, Greece.
(§3) Pqx metal complexes were diluted in stock solutions of 10 mM in dimethyl sulfoxide (DMSO). A similar concentration of cisplatin dissolved in H2O was used. HEK293T and HeLa cells were cultured in Dulbecco’s modified Eagle’s medium (DMEM) with high glucose (Biosera, Nuaille, France) supplemented with 10% fetal bovine serum at 37 °C and 5% CO2. Cells were seeded in sterile tissue culture 96-well plates (SPL Life Science, Pochon, Republic of Korea) at a density of 3000 cells per well. After 24 h, the medium was removed and replaced with fresh media containing various concentrations (0.01 μΜ, 0.1 μΜ, 1 μΜ, 10 μΜ, 25 μΜ, 40 μΜ, 55 μΜ, 70 μΜ, 85 μΜ and 100 μΜ) of the compounds to be tested and was further incubated for 48 h at 37 °C. Dimethyl sulfoxide (DMSO) was used as a vehicle at ≤1%. To measure cytotoxicity, a culture medium containing the compounds (or DMSO) was removed, and 100 μL of 0.5 mg/mL MTT reagent (Applichem, Darmstadt, Germany) diluted in DMEM was added to the cells for 3 h at 37 °C. After 3 h incubation in identical conditions, MTT was removed and 200 μL of DMSO was added. Absorbance values of formazan were measured at 540 nm using a BioTek Synergy H1 microplate reader (Agilent, Santa Clara, CA, USA). All compounds were tested in triplicate. The results were statistically analyzed using the nonlinear regression by GraphPad PRISM (Version 9).
(In general: Tetrazolium dyes change colour on reduction, which living cells bring about.)

For assay [2], the system named is PAF-induced aggregation in washed rabbit platelets (WRPs). Conditions: cited from earlier work.
Assay [3] deals with HeLa cells (cervical cancer cells). Description: MTT cell viability assay, HeLa. Conditions: 48 h exposure, mean ± SD. The assay is classed as cell-based, human. How it is done:
as §1, §2, §3

The test system of assay [4] is thrombin-induced aggregation in washed rabbit platelets (WRPs). Description: Inhibition of thrombin-induced aggregation in washed rabbit platelets. Type of assay: cell-based. Conditions: washed rabbit platelets, mean ± SD; for IC50: read-out: IC50 (μM) towards Thrombin in WRPs. How it is done: (§4) The biological experiments of PAF-induced platelet aggregation as well as the evaluation of the inhibitory effect of its synthetic compounds were performed according to thoroughly described protocols. The inhibitory effect of the starting materials (pqx = 2-(2′-pyridyl)quinoxaline, CrCl3 × 3H2O, MnCl2 × 4H2O, FeCl2 × 4H2O, CoCl2 × 6H2O, NiCl2 × 6H2O, CuCl2 × 2H2O, ZnCl2) and of the coordination compounds 1–7, towards PAF and thrombin related biological activities (aggregation experiments) in washed rabbit platelets (WRPs) was carried out according to previously described protocols. Briefly, in order to obtain the washed rabbit platelets (WRPs), platelet-rich plasma was washed on Ficoll–Paque cushions and adjusted to […] platelets/mL of Tyrode’s buffer, pH 7.2. The dilution of PAF was prepared using pyrogen-free 0.15 M NaCl containing 2.5 mg/mL of crystallized bovine serum albumin, required for dispersion of PAF. The compounds under investigation were firstly dissolved in the appropriate solvent that is: DMSO for pqx (0.010 M), H2O for CrCl3 × 3H2O (0.016 M), H2O for MnCl2 × 4H2O (0.004 M), DMSO-EtOH (4/1, v/v)) for FeCl2 × 4H2O (0.014 M), H2O for CoCl2 × 6H2O (0.010 M), H2O for NiCl2 × 6H2O (0.010 M), H2O for CuCl2 × 2H2O (0.008 M), H2O for ZnCl2 (0.013 M), DMSO for 1 (0.017 M), DMSO for 2 (0.010 M0, DMSO for 3 (0.004 M), DMSO for 4 (0.002 M), DMSO for 5 (0.003 M), DMSO-EtOH-H2O (25/1/1, v/v)) for 6 (0.006 M), DMSO for 7 (0.002 M) and aliquots of these solutions were then added in solutions (2.5 mg BSA/mL) of saline.
The experiment on the inhibitory effect of each compound of interest against the washed rabbit platelets (WRPs) aggregation was carried out as per the already described method. The platelets were from male New Zealand white rabbits (about 20), individually housed in stainless steel cages in an air-conditioned room (19 ± 1 °C, 55 ± 5% humidity on a 12/12 h artificial light/dark cycle). Blood samples were drawn from the main ear artery. Microliters of PAF in a final concentration of about 10^–10 M were added to the cuvette of the aggregometer, and the height of the platelet aggregation was monitored. The platelet aggregation induced by PAF, or thrombin was measured before (considered as 0% inhibition) and after the addition of various concentrations of the examined sample, creating a linear curve of percentage inhibition (ranging from 0 to 100%) versus different concentrations of the sample. From this curve, the concentration of the sample that inhibited 50% PAF-induced aggregation was calculated, and this value was defined as IC50 (Inhibitory concentration for 50% Inhibition). Dithiothreitol-insensitive PAF choline phosphotransferase, lyso-PAF:acetyl-CoA acetyltransferase and PAF-acetylhydrolase activity assays were performed on the homogenates of rabbit leukocytes while the activity of lipoprotein-associated phospholipase A2 was assessed on plasma as previously described. The experiments were performed in a model 400 vs. aggregometer of Chrono-Log (Havertown, PA, USA) coupled to a Chrono-Log recorder at 37 °C with constant stirring at 1200 rpm. The separation of platelets was performed with centrifugations in a 3L-R Heraeus Labofuge (Hvanau, Germany), a 400R Heraeus Labofuge and an RC-5B Sorvall (Newtown, CT, USA) refrigerated super speed centrifuge. Bovine serum albumin (BSA), PAF and analytical solvents for the biological assays were purchased from Sigma. Standard active thrombin was purchased from Sigma, St. Lewis, MO, USA. The measurements were performed in duplicates for each sample concentration in three different WRP preparations, in order to ensure reproducibility. All experiments were also followed by appropriate control tests of the solvent used (saline solution of BSA, DMSO aliquots in a saline solution of BSA-2.5 mg BSA/mL saline- or just in saline), in WRPs. […]

The test system of assay [5] is PAF-induced aggregation in washed rabbit platelets (WRPs). The assay is described as follows: Inhibition of PAF-induced aggregation in washed rabbit platelets. The assay is classed as cell-based. The settings on record: washed rabbit platelets; mean ± SD; read-out: IC50 (μM) towards PAF in WRPs. How it is done: as §4, with “The inhibitory effect of the starting materials (pqx = 2-(2′-pyridyl)quinoxaline, CrCl3 × 3H2O, MnCl2 × 4H2O, FeCl2 × 4H2O, CoCl2 × 6H2O, NiCl2 × 6H2O, CuCl2 × 2H2O, ZnCl2) and of the coordination compounds 1–7, towards PAF and thrombin related biological activities (aggregation experiments) in washed rabbit platelets (WRPs) was carried out according to previously described protocols.” left out
The experiment on the inhibitory effect of each compound of interest against the washed rabbit platelets (WRPs) aggregation was carried out as per the already described method. The platelets were from male New Zealand white rabbits (about 20), individually housed in stainless steel cages in an air-conditioned room (19 ± 1 °C, 55 ± 5% humidity on a 12/12 h artificial light/dark cycle). Blood samples were drawn from the main ear artery. Microliters of PAF in a final concentration of about 10^–10 M were added to the cuvette of the aggregometer, and the height of the platelet aggregation was monitored. The platelet aggregation induced by PAF, or thrombin was measured before (considered as 0% inhibition) and after the addition of various concentrations of the examined sample, creating a linear curve of percentage inhibition (ranging from 0 to 100%) versus different concentrations of the sample. From this curve, the concentration of the sample that inhibited 50% PAF-induced aggregation was calculated, and this value was defined as IC50 (Inhibitory concentration for 50% Inhibition). Dithiothreitol-insensitive PAF choline phosphotransferase, lyso-PAF:acetyl-CoA acetyltransferase and PAF-acetylhydrolase activity assays were performed on the homogenates of rabbit leukocytes while the activity of lipoprotein-associated phospholipase A2 was assessed on plasma as previously described. The experiments were performed in a model 400 vs. aggregometer of Chrono-Log (Havertown, PA, USA) coupled to a Chrono-Log recorder at 37 °C with constant stirring at 1200 rpm. The separation of platelets was performed with centrifugations in a 3L-R Heraeus Labofuge (Hvanau, Germany), a 400R Heraeus Labofuge and an RC-5B Sorvall (Newtown, CT, USA) refrigerated super speed centrifuge. Bovine serum albumin (BSA), PAF and analytical solvents for the biological assays were purchased from Sigma. […] The measurements were performed in duplicates for each sample concentration in three different WRP preparations, in order to ensure reproducibility. All experiments were also followed by appropriate control tests of the solvent used (saline solution of BSA, DMSO aliquots in a saline solution of BSA-2.5 mg BSA/mL saline- or just in saline), in WRPs. In the aggregometer cuvette (250 to 500 μL) the overall amount of added DMSO, contained in the solution of the sample under study, is not higher than 2–3 μL. All results were expressed as mean ± standard deviation (SD). The t-test was employed to assess differences among the IC50 values of each metal complex against either the PAF- or thrombin-induced aggregation. Differences were statistically significant when the statistical p-value was smaller than 0.05.

Assay [6] has as its system thrombin-induced aggregation in washed rabbit platelets (WRPs). The settings on record: cited from earlier work.
The mark [7] stands for this setting: known PAF antagonists quoted for comparison, read-out: IC50 against the PAF-induced aggregation in WRPs.
[8] abbreviates: earlier pqx complexes, ref [17],[25], read-out: IC50 against the PAF-induced aggregation.

Entries after “also recorded” stand apart in the source; their conditions may differ. Where two headings read alike, the source gives them in different places.

Take `N.N.[Cl][Pt][Cl]` [cisplatin, reference compound]: the IC50 (usually the concentration needed to halve the response being measured) in assay [1] is 4.44 ± 1.29 µM; in assay [2] (ref [25], read-out: IC50 against PAF) it was 0.55 µM; in assay [3], 12.8 ± 1.48 µM.

For the compound `[Cl][Cr]([Cl])[Cl]` [CrCl3 × 6H2O, reference compound], the values for the IC50 in assay [4] and in assay [5] were 611 ± 67 µM and 537 ± 59 µM, respectively.

For the compound `C[C@@H]1C(=O)O[C@H]2C[C@@]34[C@H]5C[C@@H](C(C)(C)C)[C@]36[C@@H](OC(=O)[C@@H]6O)O[C@@]4(C(=O)O5)[C@]21O` [BN 52020], the half-maximal inhibitory concentration (IC50) in assay [2] (setting [7]) is 3.6 µM.

For the compound `CC1C(=O)OC2C(O)C34C5CC(C(C)(C)C)C36C(OC(=O)C6O)OC4(C(=O)O5)C12O` (stereo not shown) [BN 52021], in assay [2] (setting [7]), the concentration for half-maximal inhibition (IC50) was 9.7 µM.

On to `[Cl][Ni][Cl]` [NiCl2 × 6H2O, reference compound], for which the IC50 in assay [4] was determined as 4.9 ± 0.44 µM; in assay [5], 30 ± 2.7 µM.

For [Rh(cod)(pqx)]Cl, the IC50 in assay [2] (setting [8]) is 0.015 µM.

For `[Cl-].[Cl-].[Zn+2]` [ZnCl2, reference compound], the figures for the IC50 in assay [4] and in assay [5] were 41.4 ± 3.7 µM and 30 ± 3 µM, respectively.

As to [Ru(dcbpyH2)2 (pqx))](NO3)2, the IC50 in assay [2] (setting [8]) was 0.18 µM. In assay [6] (known Ru(II)-pqx complex, ref [17]), the “activity against thrombin” value is “inactive”.

Regarding `[Cl][Cu][Cl]` [CuCl2 × 2H2O, reference compound], the IC50 worked out at 3.23 ± 0.39 µM in assay [4] and 22 ± 3 µM in assay [5].

As to `[Cl][Fe][Cl]` [FeCl2 × 4H2O, reference compound], the IC50 in assay [4] was found to be 13.8 ± 1.93 µM; in assay [5], 261 ± 37 µM.

As for `Cc1cncc(CN2CCC(=C3c4ccc(Cl)cc4CCc4cccnc43)CC2)c1` [rupatadine], the IC50 in assay [2] (setting [7]) is 0.25 µM.

On to `O.O.O.O.O.O.[Cl-].[Cl-].[Co+2]` [CoCl2 × 6H2O], for which the “IC50 (μM) towards PAF in WRPs” value in assay [2] (washed rabbit platelets, ref [60]) was “negligible effects; also recorded: no inhibition ^1”. The “IC50 (μM) towards Thrombin in WRPs” value in assay [4] was “no inhibition”.

As for mer-[Rh(pqx)Cl3(MeOH)], the IC50 in assay [2] (setting [8]) was 0.125 µM.

Turning to `[Cl][Mn][Cl]` [MnCl2 × 4H2O, reference compound], the IC50 in assay [4] amounted to 466 ± 47 µM; in assay [5], 302 ± 30 µM.

With cis-[Ru(bpy)2(dcbpyH2)](PF6)2, the IC50 in assay [6] (Ru(II) thrombin inhibitors, ref [30], read-out: IC50 against thrombin) was 4.5 µM.
